Experimental data from ChEMBL document CHEMBL1136397, “5-Aryl thiazolidine-2,4-diones as selective PPARgamma agonists” (Bioorg Med Chem Lett, 2003).

Experiments:
[1] = molecular target: T1, Peroxisome proliferator-activated receptor gamma (Homo sapiens, UniProt P37231)
T1 sequence (P37231 whole entry): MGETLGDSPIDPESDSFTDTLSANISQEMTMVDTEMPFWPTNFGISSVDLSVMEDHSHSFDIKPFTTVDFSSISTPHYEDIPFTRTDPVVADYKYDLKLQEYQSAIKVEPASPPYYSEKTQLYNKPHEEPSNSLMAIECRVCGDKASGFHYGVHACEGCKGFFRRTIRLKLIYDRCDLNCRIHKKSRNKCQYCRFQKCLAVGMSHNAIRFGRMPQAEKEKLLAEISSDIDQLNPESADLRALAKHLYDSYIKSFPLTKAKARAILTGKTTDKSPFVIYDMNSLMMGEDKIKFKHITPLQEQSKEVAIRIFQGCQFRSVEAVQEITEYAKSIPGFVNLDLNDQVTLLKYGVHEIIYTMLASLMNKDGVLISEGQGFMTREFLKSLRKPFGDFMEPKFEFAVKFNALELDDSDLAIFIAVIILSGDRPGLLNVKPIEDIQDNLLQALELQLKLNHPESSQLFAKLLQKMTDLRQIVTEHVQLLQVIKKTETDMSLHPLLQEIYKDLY
Description: In vitro binding affinity against human PPAR gamma (peroxisome proliferator-activated gamma receptor)

[2] = molecular target: T2, Peroxisome proliferator-activated receptor alpha (Homo sapiens, UniProt Q07869); test: In vitro binding affinity against human PPAR alpha (peroxisome proliferator-activated alpha receptor)
T2 sequence (Q07869 whole entry): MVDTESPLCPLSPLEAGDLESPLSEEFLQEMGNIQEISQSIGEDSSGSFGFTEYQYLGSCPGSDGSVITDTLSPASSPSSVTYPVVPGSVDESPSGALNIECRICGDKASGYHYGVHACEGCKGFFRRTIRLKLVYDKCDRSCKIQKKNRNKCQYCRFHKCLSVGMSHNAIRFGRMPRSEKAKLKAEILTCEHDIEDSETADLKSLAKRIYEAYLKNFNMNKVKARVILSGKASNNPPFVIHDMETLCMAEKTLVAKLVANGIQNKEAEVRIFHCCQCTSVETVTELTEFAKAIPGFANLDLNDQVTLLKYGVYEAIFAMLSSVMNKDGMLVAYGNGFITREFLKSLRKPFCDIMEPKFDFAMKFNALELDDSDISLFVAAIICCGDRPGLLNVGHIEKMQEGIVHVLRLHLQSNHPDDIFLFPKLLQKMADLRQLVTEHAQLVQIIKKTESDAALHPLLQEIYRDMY

[3] = molecular target: T3, Peroxisome proliferator-activated receptor delta (Homo sapiens, UniProt Q03181)
T3 sequence (Q03181 whole entry): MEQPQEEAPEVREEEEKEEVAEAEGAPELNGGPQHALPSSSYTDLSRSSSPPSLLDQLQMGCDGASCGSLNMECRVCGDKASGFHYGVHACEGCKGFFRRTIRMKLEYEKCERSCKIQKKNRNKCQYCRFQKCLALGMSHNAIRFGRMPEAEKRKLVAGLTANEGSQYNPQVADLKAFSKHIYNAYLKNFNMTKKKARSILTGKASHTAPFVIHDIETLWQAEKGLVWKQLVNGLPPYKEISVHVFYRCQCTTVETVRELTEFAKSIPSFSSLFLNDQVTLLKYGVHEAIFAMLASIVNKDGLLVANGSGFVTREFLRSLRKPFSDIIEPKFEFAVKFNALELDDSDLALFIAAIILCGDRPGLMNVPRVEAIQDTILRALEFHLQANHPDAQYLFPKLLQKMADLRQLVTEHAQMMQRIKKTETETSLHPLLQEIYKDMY
Description: In vitro binding affinity against human PPAR delta (peroxisome proliferator-activated delta receptor)

[4] = molecular target: T2, Peroxisome proliferator-activated receptor alpha; test: In vitro agonist activity tested for transactivation in human PPAR alpha-Gal4 chimeric COS-1 cells; assay type: functional, cell-based
[5] = molecular target: T1, Peroxisome proliferator-activated receptor gamma; remark: listed apart in the source
Description: In vitro agonist activity tested for transactivation in human PPAR gamma-Gal4 chimeric COS-1 cells

[6] = molecular target: T3, Peroxisome proliferator-activated receptor delta; remark: listed apart in the source
Description: In vitro agonist activity tested for transactivation in human PPAR delta-GAL4 chimeric COS-1 cells

[7] = Oral bioavailability in rat (dose 2 mg/kg); assay type: ADME, organism-based; settings: in vivo
[8] = (§1) Plasma clearance was determined in rat after intravenous administration (0.5 mg/kg); assay type: ADME, organism-based; settings: read-out: Clp
Rattus norvegicus [9] = test: Dose-normalized AUC was determined in rat after peroral administration (2 mg/kg); assay type: ADME, organism-based; settings: in vivo, po
[10] = In vivo glucose correction was determined in male db/db mice after administration at 10 mg/kg; assay type: functional, Mus musculus
[11] = In vivo triglyceride correction was determined in male db/db mice after administration at 10 mg/kg; assay type: functional, Mus musculus
[12] = Half-life was determined in rat after intravenous administration (0.5 mg/kg); assay type: ADME, organism-based; settings: in vivo
Mus musculus [13] = test: In vivo glucose correction was determined in male db/db mice after administration at 5 mg/kg; assay type: functional
Mus musculus [14] = test: In vivo triglyceride correction was determined in male db/db mice after administration at 5 mg/kg; assay type: functional
Rattus norvegicus [15] = test: as §1; assay type: functional, organism-based

Compound	IC50 [1] [µM]	IC50 [2] [µM]	IC50 [3] [µM]	EC50 [4] [µM]	EC50 [5] [µM]	EC50 [6] [µM]	bioavailability [7] [%]	clearance [8] [L/h/kg]	AUC (Rattus norvegicus [9]) [µM·h]	Glucose correction [10] [%]	Triglyceride correction [11] [%]	half-life [12] [h]	Glucose correction (Mus musculus [13]) [%]	Triglyceride correction (Mus musculus [14]) [%]	CL (mL.min-1.kg-1) (Rattus norvegicus [15])
O=C1NC(=O)C(c2ccc(OCCCOc3ccc(Oc4ccccc4)cc3)cc2)S1 (stereo unspecified)	> 15	> 50	> 50	–	–	–	–	–	–	–	–	–	–	–	–
CCCc1cc(Oc2ccc(CC(C)C)cc2)ccc1OCCCOc1ccc(C2SC(=O)NC2=O)cc1 (stereo unspecified)	0.13	> 50	> 50	> 3	0.03	> 3	–	–	–	–	–	–	–	–	–
CCCc1cc(Oc2ccccc2)ccc1OCCCOc1ccc(C2SC(=O)NC2=O)cc1OC (stereo unspecified)	1	> 50	> 10	> 3	0.4	> 3	–	–	–	–	–	–	–	–	–
CC(C)Cc1cc(Oc2ccccc2)ccc1OCCCOc1ccc(C2SC(=O)NC2=O)cc1 (stereo unspecified)	–	0.34	0.16	–	–	–	–	–	–	–	–	–	–	–	–
CCCc1cc(Oc2ccccc2)ccc1OCCCCOc1ccc(C2SC(=O)NC2=O)cc1 (stereo unspecified)	3	> 50	> 10	> 3	–	> 3	–	–	–	–	–	–	–	–	–
CCCc1cc(Oc2ccc(F)cc2)ccc1OCCCOc1ccc(C2SC(=O)NC2=O)cc1 (stereo unspecified)	–	> 50	> 50	> 50	–	> 50	63	0.216	5.97	78	71	2.1	–	–	–
CCCc1cc(Oc2ccccc2)ccc1OCCCOc1ccc(C2SC(=O)NC2=O)cc1Cl (stereo unspecified)	0.43	> 50	0.88	> 3	0.7	> 3	–	–	–	–	–	–	–	–	–
CCCc1cc(Oc2ccc(S(C)(=O)=O)cc2)ccc1OCCCOc1ccc(C2SC(=O)NC2=O)cc1 (stereo unspecified)	0.25	> 50	> 50	> 3	0.12	> 3	84	–	11.8	86	78	2.8	62	55	2.1
CN(CCOc1ccc(CC2SC(=O)NC2=O)cc1)c1ccccn1 (stereo unspecified) [ROSIGLITAZONE]	–	–	–	–	–	–	85	0.162	16.4	–	–	1.2	46	52	–
CCCc1cc(Oc2ccc(C(F)(F)F)cc2)ccc1OCCCOc1ccc(C2SC(=O)NC2=O)cc1 (stereo unspecified)	1.8	> 50	> 50	–	–	–	–	–	–	–	–	–	–	–	–
CCCc1cc(Oc2ccc(NS(C)(=O)=O)cc2)ccc1OCCCOc1ccc(C2SC(=O)NC2=O)cc1 (stereo unspecified)	2	> 50	> 50	–	–	–	–	–	–	–	–	–	–	–	–
CCCc1cc(Oc2ccc(NS(=O)(=O)c3ccc(C)cc3)cc2)ccc1OCCCOc1ccc(C2SC(=O)NC2=O)cc1 (stereo unspecified)	5.7	> 50	> 50	> 3	0.5	> 3	–	–	–	–	–	–	–	–	–
CCCc1cc(Oc2ccc(C)cc2)ccc1OCCCOc1ccc(C2SC(=O)NC2=O)cc1 (stereo unspecified)	2.6	> 50	> 50	–	–	–	–	–	–	–	–	–	–	–	–
CCCc1cc(Oc2ccc(OC)cc2)ccc1OCCCOc1ccc(C2SC(=O)NC2=O)cc1 (stereo unspecified)	0.46	> 50	> 50	> 10	–	> 3	39	0.066	11.7	67	67	2.8	–	–	–
CCCc1cc(Oc2ccccc2)ccc1OCCCOc1ccc(C2SC(=O)NC2=O)cc1CCC (stereo unspecified)	0.12	> 50	1	> 3	0.2	3	–	–	–	–	–	–	–	–	–
CCCc1cc(Oc2ccccc2)ccc1OCCCOc1ccc(C2SC(=O)NC2=O)cc1 (stereo unspecified)	–	50	> 10	> 3	–	> 3	89	0.138	13.8	77	74	2.3	–	–	–
CCCc1cc(Oc2ccc(C3CCCC3)cc2)ccc1OCCCOc1ccc(C2SC(=O)NC2=O)cc1 (stereo unspecified)	0.18	> 50	> 50	–	–	–	–	–	–	–	–	–	–	–	–
CCCc1cc(Oc2ccccc2)ccc1OCCCOc1ccc(C2SC(=O)NC2=O)cc1F (stereo unspecified)	–	–	2	> 3	0.3	> 3	63	0.174	7.43	43	50	1.7	–	–	–
CCCc1cc(Oc2ccc(Cl)cc2)ccc1OCCCOc1ccc(C2SC(=O)NC2=O)cc1 (stereo unspecified)	2	> 50	> 50	3	0.08	> 3	58	0.174	6.7	86	80	5.4	–	–	–
CCCc1cc(Oc2ccccc2)ccc1OCCCOc1ccc(C2SC(=O)NC2=O)cc1C (stereo unspecified)	6.7	> 50	6	> 3	0.1	> 3	–	–	–	–	–	–	–	–	–
CCCc1cc(Oc2ccc(-c3ccccc3)cc2)ccc1OCCCOc1ccc(C2SC(=O)NC2=O)cc1 (stereo unspecified)	0.13	> 50	> 50	> 3	0.02	> 3	6	0.168	0.7	–	–	2.2	–	–	–
